The subject of this experiment is Clostridium perfringens ATCC 13124. The format is cell-based. The note with it: brain heart infusion broth, pH 6.0, 30° C., 0% oxygen.
In the case of C8 lactylate, the “MIC values (%)” value is on record as 0.05%.
The value for C10 lactylate was 0.04%; that for C12 lactylate was 0.002%; that for C14 lactylate was 0.001%.
The value for C16 lactylate was 0.002%; that for C18:1 lactylate was 0.02%.
